The target in one assay is T1, ALK5 (TGF-β RI) (Homo sapiens, UniProt P36897).
T1 sequence (P36897 34-503): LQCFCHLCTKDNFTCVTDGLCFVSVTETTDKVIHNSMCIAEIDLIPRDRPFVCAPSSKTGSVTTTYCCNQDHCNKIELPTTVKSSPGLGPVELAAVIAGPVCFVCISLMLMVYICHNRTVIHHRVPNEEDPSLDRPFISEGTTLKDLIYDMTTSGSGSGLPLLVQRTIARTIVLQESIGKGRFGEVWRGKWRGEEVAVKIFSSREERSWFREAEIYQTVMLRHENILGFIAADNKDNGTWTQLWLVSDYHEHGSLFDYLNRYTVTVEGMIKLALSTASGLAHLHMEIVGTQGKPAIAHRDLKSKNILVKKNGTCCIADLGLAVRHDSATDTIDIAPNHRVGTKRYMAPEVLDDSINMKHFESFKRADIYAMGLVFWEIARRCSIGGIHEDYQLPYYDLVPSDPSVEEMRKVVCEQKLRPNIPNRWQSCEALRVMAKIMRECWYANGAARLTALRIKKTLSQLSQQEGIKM
Particulars: high concentrations, approximate; cited from earlier work.

Assay [1] has as its system epithelial stem cells derived from human tissues or other mammals. Kind of assay: Epithelial stem cell culture on irradiated 3T3-J2 feeder. As to conditions: feeder-based medium. The text has this:
An illustrative system is a medium referred to as SQM. The SQM medium has been tested and proven to support robust growth of epithelial stem cells derived from human tissues or other mammals in the presence of the irradiate feeder of mouse fibroblast cells (3T3-J2). For example, lung stem cells, esophagus stem cell, bladder stem cells and ovarian cancer stem cells, can all grow robustly in this culture system that comprises SQM medium, along with irradiated 3T3-J2 feeders in the illustrated example.
The base medium comprises DMEM, F12, FBS, L-glutamine, Adenine, Pen/Strep, Insulin, T3, Hydrocortisone, EGF and is further added a Rock inhibitor, TGF-beta inhibitor, BMP4 inhibitor, VEGF inhibitor, TrkA inhibitor, Ponatinib and FGF10. […] R-spondin was found not required to support the self-renewal and multipotency of stratified epithelial stem cells.

Assay [2] has the same test system. Kind of assay: Feeder-free epithelial stem cell culture. Format: cell-based. The text has this: Another illustrative system is a medium referred to as SGM-63+. The SGM-63+ medium has been tested and proven to support robust growth of epithelial stem cells derived from human tissues or other mammals in the absence of the irradiate feeder of mouse fibroblast cells (3T3-J2). For example, lung stem cells, esophagus stem cell, bladder stem cells and ovarian cancer stem cells, can all grow robustly in this culture system that comprises SGM-63+ medium without the need of irradiated 3T3-J2 feeders in the illustrated example.
The base medium comprises DMEM, F12, FBS, L-glutamine, Adenine, Pen/Strep, Insulin, T3, Hydrocortisone, EGF and is further added a Rock inhibitor, TGF-beta inhibitor, BMP4 inhibitor, VEGF inhibitor, TrkA inhibitor, Ponatinib, CK2 inhibitor, Syk inhibitor, LPA Receptor antagonist, Oct 4-activating compound 1, GSK3 inhibitor and FGF10. […] R-spondin was found not required to support the self-renewal and multipotency of stratified epithelial stem cells.

Consider 3 molecules from US20240158756A1, “FEEDER-BASED AND FEEDER-FREE STEM CELL CULTURE SYSTEMS FOR STRATIFIED EPITHELIAL STEM CELLS, AND USES RELATED THERETO” (University of Houston System, priority 2019, published 2024).

Where only a bound is given, the exact number is not on record here.

As for “4-[5-(4-Fluorophenyl)-2-[4-(methylsulfonyl)phenyl]-1H-imidazol-4-yl]pyridine [SB-203580]”, the “concentration at which ALK5 may be inhibited” value on ALK5 (TGF-β RI) was no less than 10 µM.
For the molecule `NC(=O)c1cccnc1` [nicotinamide], the “effect of inclusion in the medium on epithelial stem cell self-renewal” value is on record as “induce the abortion of some epithelial stem cell (lung, esophagus etc) self-renewal” in assay [1] and “induce the abortion of some epithelial stem cell (lung, esophagus etc) self-renewal” in assay [2].
For “jagged1: Notch agonist, surface-bound or secreted Notch ligand”, the “effect of inclusion in the medium on epithelial stem cell self-renewal” value is given as “induce the abortion of some epithelial stem cell (lung, esophagus etc) self-renewal” in assay [1] and “induce the abortion of some epithelial stem cell (lung, esophagus etc) self-renewal” in assay [2].
